Seven molecules from US20250333397A1 (REMIX THERAPEUTICS INC., priority 2021, published 2025) can be followed below.

The structures appear in SMILES notation. Read-outs that look alike come from different tables or passages of the source.

Holding throughout (assay type): cell-based, human
For one experiment, the system named is SMN2 mRNA. Nature of the experiment: RT-qPCR splicing assay panel, SMN2 canonical junction (CJ) mRNA. The conditions noted are these: Homo sapiens, canonical junction (CJ) mRNA, RT-qPCR panel, Table 4A; read-out: SMN2, decrease in CJ mRNA levels, IC50. In a few lines: (§1)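 A673 (DMEM/10% FBS) or K562 (IMDM/10% FBS) cells treated 24 h at 37 °C with 11-point 3-fold dilutions, top 10 uM final, DMSO ≤0.25%. Lysates read by one-step RT-qPCR for CJ and AJ isoforms, normalized to GAPDH, GUSB or PPIA. ΔΔCt vs DMSO gives RQ via 2^(-ΔΔCt).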

A further experiment deals with Target C mRNA. Nature of the experiment: RT-qPCR splicing assay panel, Target C canonical junction (CJ) mRNA. Particulars: Homo sapiens, canonical junction (CJ) mRNA, RT-qPCR panel, Table 4A; read-out: Target C, decrease in CJ mRNA levels, IC50. In a few lines: as §1
The next experiment relates to MYB mRNA. In words: RT-qPCR splicing assay, MYB canonical (CJ) and alternative (AJ) junction mRNA. Particulars: Homo sapiens; for AC50: read-out: MYB AJ (AC50, increase in AJ mRNA). The essentials:
as §1

The next experiment deals with HTT mRNA. In words: RT-qPCR splicing assay, HTT canonical (CJ) and alternative (AJ) junction mRNA. Particulars: Homo sapiens; for AC50: read-out: HTT AJ (AC50, increase in AJ mRNA). In a few lines: as §1
Setting [1] is: 24 h, Table 3A, A673 or K562 cells, 24 h treatment.
Setting [2] is: 24 h, Table 3A, A673 or K562 cells, 24 h treatment, read-out: MYB CJ (IC50, decrease in CJ mRNA).
The mark [3] stands for this setting: canonical junction (CJ) mRNA, RT-qPCR panel, Table 4A, read-out: MYB, decrease in CJ mRNA levels, IC50.
Setting [4] is: 24 h, Table 3A, A673 or K562 cells, 24 h treatment, read-out: HTT CJ (IC50, decrease in CJ mRNA).
[5] abbreviates: canonical junction (CJ) mRNA, RT-qPCR panel, Table 4A, read-out: HTT, decrease in CJ mRNA levels, IC50.

On to `COc1cc(-c2ccc(-c3ccc(N4CCC(NC56CC(C5)C6)C4)nn3)c(O)c2)cnn1` (centres unmarked) [Compound 335, 2-[6-(3-{bicyclo[1.1.1]pentan-1-ylamino}pyrrolidin-1-yl)pyridazin-3-yl]-5-(6-methoxypyridazin-4-yl)phenol], for which the 50% inhibitory concentration (IC50) was 0.1 to 1 µM in the experiment with SMN2 mRNA; 0.1 to 1 µM with Target C mRNA; 0.1 to 1 µM in the experiment with MYB mRNA (setting [2]); 0.1 to 1 µM in the experiment with MYB mRNA (setting [3]); under 0.1 µM in the experiment with HTT mRNA (setting [4]); under 0.1 µM in the experiment with HTT mRNA (setting [5]). Further, the values for the AC50 in the experiment on MYB mRNA (setting [1]) and with HTT mRNA (setting [1]) were 1 to 10 µM and 0.1 to 1 µM, respectively.

On to `COc1cc(-c2cc(O)c(-c3cnc(N4CC[C@H](NC5CCC5)C4)nn3)cc2F)cnn1` [Compound 321, 2-{3-[(3S)-3-(cyclobutylamino)pyrrolidin-1-yl]-1,2,4-triazin-6-yl}-4-fluoro-5-(6-methoxypyridazin-4-yl)phenol], for which the IC50 in the experiment on SMN2 mRNA is 0.1 to 1 µM; in the experiment with Target C mRNA, 0.1 to 1 µM; in the experiment on MYB mRNA (setting [2]), 1 to 10 µM; with MYB mRNA (setting [3]), 1 to 10 µM; with HTT mRNA (setting [4]), 0.1 to 1 µM; with HTT mRNA (setting [5]), 0.1 to 1 µM. The AC50 in the experiment on MYB mRNA (setting [1]) is 1 to 10 µM; in the experiment with HTT mRNA (setting [1]), 0.1 to 1 µM.

As to `Cc1cn(-c2cc(O)c(-c3ccc(N4CC[C@@H](NC5CCC5)C4)nn3)cc2F)cn1` [Compound 226, 2-{6-[(3R)-3-(cyclobutylamino)pyrrolidin-1-yl]pyridazin-3-yl}-4-fluoro-5-(4-methylimidazol-1-yl)phenol], the IC50 with SMN2 mRNA was under 0.1 µM; with Target C mRNA, 0.1 to 1 µM; in the experiment on MYB mRNA (setting [2]), 0.1 to 1 µM; with MYB mRNA (setting [3]) it was 0.1 to 1 µM; with HTT mRNA (setting [4]), under 0.1 µM; in the experiment on HTT mRNA (setting [5]) it was under 0.1 µM. For the same molecule, the half-maximal activity concentration (AC50) in the experiment with MYB mRNA (setting [1]) and in the experiment with HTT mRNA (setting [1]) was 0.1 to 1 µM in each case.

As to `Cc1ncc(-c2cc(O)c(-c3cnc(OC4CC(C)(C)NC(C)(C)C4)nn3)cc2F)s1` [Compound 435], the IC50 in the experiment on SMN2 mRNA was under 0.1 µM; in the experiment on Target C mRNA, 0.1 to 1 µM; with MYB mRNA (setting [2]), 1 to 10 µM; with MYB mRNA (setting [3]) it was 1 to 10 µM; with HTT mRNA (setting [4]) it was 0.1 to 1 µM; in the experiment on HTT mRNA (setting [5]), 0.1 to 1 µM. Besides, the figures for the half-maximal activity concentration (AC50) with MYB mRNA (setting [1]) and with HTT mRNA (setting [1]) were 1 to 10 µM and 0.1 to 1 µM, respectively.

In the case of `Oc1cc(-c2cn[nH]c2)ccc1-c1ccc(N2CCC(NCC3CC3)C2)nn1` (centres unmarked) [Compound 108, 2-(6-{3-[(cyclopropylmethyl)amino]pyrrolidin-1-yl}pyridazin-3-yl)-5-(1H-pyrazol-4-yl)phenol; methane], the IC50 in the experiment on SMN2 mRNA was under 0.1 µM; in the experiment on Target C mRNA, 0.1 to 1 µM; with MYB mRNA (setting [2]) it was 0.1 to 1 µM; in the experiment with MYB mRNA (setting [3]) it was 0.1 to 1 µM; with HTT mRNA (setting [4]), under 0.1 µM; with HTT mRNA (setting [5]), under 0.1 µM. The AC50 was 0.1 to 1 µM in the experiment with MYB mRNA (setting [1]) and under 0.1 µM in the experiment on HTT mRNA (setting [1]).

`Cc1cnc(-c2cc(O)c(-c3ccc(N4CCC(NC5CCC5)C4)nn3)cc2F)s1` (centres unmarked) [Compound 367]: the IC50 in the experiment on SMN2 mRNA was 1 to 10 µM; with Target C mRNA, over 10 µM; with MYB mRNA (setting [2]), over 10 µM; in the experiment on MYB mRNA (setting [3]), over 10 µM; in the experiment with HTT mRNA (setting [4]), over 10 µM; with HTT mRNA (setting [5]) it was over 10 µM. Further, the AC50 in the experiment with MYB mRNA (setting [1]) and with HTT mRNA (setting [1]) was over 10 µM each time.

As to `CCc1cc(-c2ccc(-c3ccc(N4CC[C@@H](NC5CCC5)C4)nn3)c(O)c2)cnn1` [Compound 277, 2-{6-[(3R)-3-(cyclobutylamino)pyrrolidin-1-yl]pyridazin-3-yl}-5-(6-ethylpyridazin-4-yl)phenol], the IC50 in the experiment on SMN2 mRNA is 1 to 10 µM; with Target C mRNA, over 10 µM; with MYB mRNA (setting [2]) it was 1 to 10 µM; in the experiment with MYB mRNA (setting [3]), 1 to 10 µM; with HTT mRNA (setting [4]), 1 to 10 µM; in the experiment with HTT mRNA (setting [5]), 1 to 10 µM. The AC50 in the experiment with MYB mRNA (setting [1]) and in the experiment on HTT mRNA (setting [1]) was over 10 µM in each case.
